Target: Tif1 A64Q point mutant (Saccharomyces cerevisiae, UniProt P10081, A64Q)
Assay: DARTS target mutation analysis
Format: binding, yeast
Conditions: FIG. 4C
From the text: This enrichment was confirmed by western blotting using the TAP-tagged (Ghaemmaghami et al. (2003) Nature 425: 737-741) eIF4A yeast strain (FIG. 10). […] While the alanine is conserved throughout fungi and animals, plants have a glutamine at this position and the bulkier side chain is hypothesized to protect plant eIF4A from resveratrol inhibition by minimizing self binding.

Sequence of Tif1 A64Q point mutant (P10081 whole entry A64Q): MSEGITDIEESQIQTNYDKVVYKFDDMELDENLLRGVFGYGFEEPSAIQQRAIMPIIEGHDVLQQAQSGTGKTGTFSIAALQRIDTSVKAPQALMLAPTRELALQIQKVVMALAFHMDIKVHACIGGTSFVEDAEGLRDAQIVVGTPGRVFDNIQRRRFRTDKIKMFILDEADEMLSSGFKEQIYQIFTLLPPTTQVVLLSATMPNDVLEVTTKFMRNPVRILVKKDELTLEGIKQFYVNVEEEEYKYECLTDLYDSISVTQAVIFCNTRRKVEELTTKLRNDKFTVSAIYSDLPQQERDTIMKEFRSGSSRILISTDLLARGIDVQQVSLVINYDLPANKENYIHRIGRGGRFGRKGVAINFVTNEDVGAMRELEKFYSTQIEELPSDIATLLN

For `Oc1ccc(C=Cc2cc(O)cc(O)c2)cc1` [resveratrol], the “effect of Tif1 A64Q point mutation on resveratrol protection” value was “confers resistance to resveratrol”.
